Source: ChEMBL document CHEMBL2434869, “Pyrazole containing natural products: synthetic preview and biological significance” (Eur J Med Chem, 2013)

Columns and labels:
[1] = Toxicity in white mouse; type: organism-based; details: in vivo
[2] = Cytotoxicity against mouse EAC assessed as growth inhibition; type: functional, Ehrlich
[3] = tested on: X5563; assay: Cytotoxicity against mouse X5563 cells assessed as growth inhibition; type: functional
[4] = Cytotoxicity against mouse Gardner lymphosarcoma cells assessed as growth inhibition; type: functional
[5] = Cytotoxicity against mouse mammary carcinoma 755 cells assessed as growth inhibition; type: functional
[6] = Cytotoxicity against rat Walker 256 cells assessed as growth inhibition; type: functional

SMILES	MTD [1]	growth inhibition (GI) [2]	growth inhibition (GI) [3]	growth inhibition (GI) [4]	growth inhibition (GI) [5]	growth inhibition (GI) [6]
COc1[nH]nc2nncnc12	50 mg/kg	83%	–	–	–	–
COc1nnc2nn(C)cnc1-2	0.2 mg/kg	40%	–	–	–	–
COc1nnc2n(C)ncnc1-2 [PSEUDOIODININE]	20 mg/kg	64%	–	–	–	–
NC(=O)c1ncn([C@@H]2O[C@H](CO)[C@@H](O)[C@H]2O)n1 [RIBAVIRIN]	–	–	>50%	>50%	>50%	>50%
